27 compounds from patent US10251889B2, “Substituted pyrazolo[1,5-a]pyrimidine compounds as Trk kinase inhibitors” (Array BioPharma, Inc., priority 2009, dated 2019) can be followed below.

Chain of Jak2 (human Jak2 kinase domain, amino acids 808-1132) (O60674 808-1132): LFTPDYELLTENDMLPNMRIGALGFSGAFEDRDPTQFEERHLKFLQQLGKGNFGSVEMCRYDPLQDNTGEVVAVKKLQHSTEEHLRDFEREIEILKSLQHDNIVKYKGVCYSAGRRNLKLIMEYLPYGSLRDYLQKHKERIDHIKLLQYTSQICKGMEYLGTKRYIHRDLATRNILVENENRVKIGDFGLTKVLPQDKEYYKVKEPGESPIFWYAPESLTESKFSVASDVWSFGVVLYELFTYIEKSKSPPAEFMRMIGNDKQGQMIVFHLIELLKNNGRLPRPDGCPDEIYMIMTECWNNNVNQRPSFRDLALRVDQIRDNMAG

In the assay the target is Jak2 (human Jak2 kinase domain, amino acids 808-1132) (Homo sapiens (Human), UniProt O60674). The experiment in a line: Jak2 inhibition assay (Omnia kinase assay). The conditions noted are these: read-out: Jak2 Enzyme (% inhibition at 1000 nM), Table 1; 1000 nM test compound. It counts as biochemical. As to the method:
The assays described in Examples C, D, E and F for the determination of JAK1, JAK2, JAK3 and Tyk2 kinase activity, respectively, utilized the Omnia® Kinase fluorescence peptide substrate-based technology (Invitrogen). […] The reactions were therefore read at excitation 360 nm and emission was measured at 485 nm every 50 seconds for 45 minutes using a PerkinElmer EnVision Multilabel Plate Reader.
The final buffer conditions for each of the JAK1, JAK2, JAK3 and Tyk2 assays were as follows: 25 mM HEPES, pH 7.4, 10 mM MgCl2, 0.01% Triton X-100 and 1 mM DTT.
Two-μL aliquots of these were transferred to a fresh plate for a ten-fold intermediate dilution with assay buffer. Five-μL aliquots of the diluted compounds were then transferred to 20-μL of assay mixtures described in Examples C, D, E and F for a final concentration of DMSO of 2%. […] For each plate, percent of control (POC) values were calculated for each well according to the following equation:
where Xmax=Average Uninhibited Controls • Xmin=Average Background IC50's were estimated from the POC's using a standard 4-parameter logistic model:
where A=Minimum Y (Bottom Asymptote) • B=Maximum Y (Top Asymptote) • C=EC50 • D=Slope Factor • X=Compound Concentration (nM) • Y=POC
The IC50 is defined as the concentration of inhibitor at which the POC equals 50 for the fitted curve.
Compounds of Formula I were screened for their ability to inhibit Jak2 using the general enzyme inhibition assay method, in which the assay mixture contained 500 μM ATP, 10 μM Omnia® Y7 peptide (Catalog # IVGN KNZ3071C, Invitrogen Corporation, Carlsbad, Calif.) and 4 nM Jak2 in a total volume of 20 μL. Human Jak2 kinase domain comprising amino acids 808-1132 was purchased from Invitrogen Corporation, Carlsbad, Calif. (catalog # IVGN PV4210).
`COc1ncc(F)cc1[C@H]1CCCN1c1ccn2ncc(C(=O)NCCCO)c2n1` [Example 148, (R)-5-(2-(5-fluoro-2-methoxypyridin-3-yl)pyrrolidin-1-yl)-N-(3-hydroxypropyl)pyrazolo[1,5-a]pyrimidine-3-carboxamide]: the inhibition – broadly, the relative decrease from the control value, in per cent – at 1 µM came out at 44.3%.

As to `COc1ncc(F)cc1[C@H]1CCCN1c1ccn2ncc(C(=O)Nc3ccc(=O)[nH]c3)c2n1` [Example 161, (R)-5-(2-(5-fluoro-2-methoxypyridin-3-yl)pyrrolidin-1-yl)-N-(6-oxo-1,6-dihydropyridin-3-yl)pyrazolo[1,5-a]pyrimidine-3-carboxamide], the inhibition at 1 µM worked out at 27.4%.

Turning to `O=C(NC1CCOCC1)c1cnn2ccc(N3CCC[C@@H]3c3cc(F)ccc3F)nc12` [Example 20, (R)-5-(2-(2,5-difluorophenyl)pyrrolidin-1-yl)-N-(tetrahydro-2H-pyran-4-yl)pyrazolo[1,5-a]pyrimidine-3-carboxamide], the inhibition at 1 µM came out at 78.9%.

Consider `Cn1cc(F)cc([C@H]2CCCN2c2ccn3ncc(C(=O)Nc4cccnc4)c3n2)c1=O` [Example 231, (R)-5-(2-(5-fluoro-1-methyl-2-oxo-1,2-dihydropyridin-3-yl)pyrrolidin-1-yl)-N-(pyridin-3-yl)pyrazolo[1,5-a]pyrimidine-3-carboxamide], for which the inhibition at 1 µM stood at 26.6%.

As to `O=C(c1cnn2ccc(N3CCC[C@@H]3c3cncc(F)c3)nc12)N1CCC1` [Example 126, (R)-azetidin-1-yl(5-(2-(5-fluoropyridin-3-yl)pyrrolidin-1-yl)pyrazolo[1,5-a]pyrimidin-3-yl)methanone], the inhibition at 1 µM is -1%.

As to `Cn1cc(F)cc([C@H]2CCCN2c2ccn3ncc(C(=O)N[C@@H]4CCCC[C@H]4O)c3n2)c1=O` [Example 234, 5-((R)-2-(5-fluoro-1-methyl-2-oxo-1,2-dihydropyridin-3-yl)pyrrolidin-1-yl)-N-((1R,2R)-2-hydroxycyclohexyl)pyrazolo[1,5-a]pyrimidine-3-carboxamide], the inhibition at 1 µM is 5.3%.

Take `CC(C)(O)CNC(=O)c1cnn2ccc(N3CCC[C@@H]3c3cncc(F)c3)nc12` [Example 111, (R)-5-(2-(5-fluoropyridin-3-yl)pyrrolidin-1-yl)-N-(2-hydroxy-2-methylpropyl)pyrazolo[1,5-a]pyrimidine-3-carboxamide]: the inhibition at 1 µM was determined as 0.1%.

As to `NC(=O)c1cnn2ccc(N3CCC[C@@H]3c3cc(F)cc(OCCN4CCOCC4)c3)nc12` [Example 76, (R)-5-(2-(3-fluoro-5-(2-morpholinoethoxy)phenyl)pyrrolidin-1-yl)pyrazolo[1,5-a]pyrimidine-3-carboxamide], the inhibition at 1 µM was 4.8%.

For `CC1(C)OCC(COc2cc(F)cc([C@H]3CCCN3c3ccn4ncc(C(=O)NC5CC5)c4n3)c2)O1` (stereo partly drawn) [Example 206, N-cyclopropyl-5-((2R)-2-(3-((2,2-dimethyl-1,3-dioxolan-4-yl)methoxy)-5-fluorophenyl)pyrrolidin-1-yl)pyrazolo[1,5-a]pyrimidine-3-carboxamide], the inhibition at 1 µM is 12.6%.

As to `COc1ncc(F)cc1[C@H]1CCCN1c1ccn2ncc(C(=O)NCC(C)(C)O)c2n1` [Example 158, (R)-5-(2-(5-fluoro-2-methoxypyridin-3-yl)pyrrolidin-1-yl)-N-(2-hydroxy-2-methylpropyl)pyrazolo[1,5-a]pyrimidine-3-carboxamide], the inhibition at 1 µM came out at 14.4%.

In the case of `C[C@@H](O)[C@H](CO)NC(=O)c1cnn2ccc(N3CCC[C@@H]3c3cc(F)ccc3F)nc12` [Example 174, 5-((R)-2-(2,5-difluorophenyl)pyrrolidin-1-yl)-N-((2S,3R)-1,3-dihydroxybutan-2-yl)pyrazolo[1,5-a]pyrimidine-3-carboxamide], the inhibition at 1 µM amounted to 6.4%.

For the compound `COc1ccc(F)cc1[C@H]1CCCN1c1ccn2ncc(C(=O)NCCN3CCOCC3)c2n1` [Example 54, (R)-5-(2-(5-fluoro-2-methoxyphenyl)pyrrolidin-1-yl)-N-(2-morpholinoethyl)pyrazolo[1,5-a]pyrimidine-3-carboxamide], the inhibition at 1 µM turned out to be 23%.

For `Cn1cc(F)cc([C@H]2CCCN2c2ccn3ncc(C(=O)NC(C)(C)C)c3n2)c1=O` [Example 226, (R)—N-tert-butyl-5-(2-(5-fluoro-1-methyl-2-oxo-1,2-dihydropyridin-3-yl)pyrrolidin-1-yl)pyrazolo[1,5-a]pyrimidine-3-carboxamide], the inhibition at 1 µM was found to be 100%.

`CC1(C)CC[C@H](c2cc(F)ccc2F)N1c1ccn2ncc(C(N)=O)c2n1` [Example 67, (R)-5-(5-(2,5-difluorophenyl)-2,2-dimethylpyrrolidin-1-yl)pyrazolo[1,5-a]pyrimidine-3-carboxamide]: the inhibition at 1 µM was 22.3%.

Turning to `CONC(=O)c1cnn2ccc(N3CCC[C@@H]3c3cc(F)ccc3F)nc12` [Example 65, (R)-5-(2-(2,5-difluorophenyl)pyrrolidin-1-yl)-N-methoxypyrazolo[1,5-a]pyrimidine-3-carboxamide], the inhibition at 1 µM turned out to be 34.1%.

For the compound `COc1ncc(F)cc1[C@H]1CCCN1c1ccn2ncc(C(=O)NCCO)c2n1` [Example 155, (R)-5-(2-(5-fluoro-2-methoxypyridin-3-yl)pyrrolidin-1-yl)-N-(2-hydroxyethyl)pyrazolo[1,5-a]pyrimidine-3-carboxamide], the inhibition at 1 µM stood at 33.3%.

Take `Cn1cnc(CNC(=O)c2cnn3ccc(N4CCC[C@@H]4c4cc(F)ccc4F)nc23)c1` [Example 21, (R)-5-(2-(2,5-difluorophenyl)pyrrolidin-1-yl)-N-((1-methyl-1H-imidazol-4-yl)methyl) pyrazole[1,5-a]pyrimidine-3-carboxamide]: the inhibition at 1 µM came to 5.8%.

Regarding `O=C(NCCN1CCNC1=O)c1cnn2ccc(N3CCC[C@@H]3c3cc(F)ccc3F)nc12` [Example 24, (R)-5-(2-(2,5-difluorophenyl)pyrrolidin-1-yl)-N-(2-(2-oxoimidazolidin-1-yl)ethyl) pyrazole[1,5-a]pyrimidine-3-carboxamide], the inhibition at 1 µM was determined as 11.5%.

As for `O=C(NC1(C(=O)O)CC1)c1cnn2ccc(N3CCC[C@@H]3c3cc(F)ccc3F)nc12` [Example 84, (R)-1-(5-(2-(2,5-difluorophenyl)pyrrolidin-1-yl)pyrazolo[1,5-a]pyrimidine-3-carboxamido)cyclopropanecarboxylic Acid], the inhibition at 1 µM stood at 2.7%.

Consider `C[C@H](O)CNC(=O)c1cnn2ccc(N3CCC[C@@H]3c3cc(F)ccc3F)nc12` [Example 166, 5-((R)-2-(2,5-difluorophenyl)pyrrolidin-1-yl)-N-(2-hydroxypropyl)pyrazolo[1,5-a]pyrimidine-3-carboxamide], for which the inhibition at 1 µM stood at 13.8%.

For `Nc1ncc(F)cc1[C@H]1CCCN1c1ccn2ncc(C(=O)N3CCC3)c2n1` [Example 221, (R)-(5-(2-(2-amino-5-fluoropyridin-3-yl)pyrrolidin-1-yl)pyrazolo[1,5-a]pyrimidin-3-yl)(azetidin-1-yl)methanone], the inhibition at 1 µM is -1.2%.

On to `COc1ncc(F)cc1[C@H]1CCCN1c1ccn2ncc(C(N)=O)c2n1` [Example 82, (R)-5-(2-(5-fluoro-2-methoxypyridin-3-yl)pyrrolidin-1-yl)pyrazolo[1,5-a]pyrimidine-3-carboxamide], for which the inhibition at 1 µM stood at 10.7%.

With `O=C(c1cnn2ccc(N3CCC[C@@H]3c3cncc(F)c3)nc12)N1CC(O)C1` [Example 108, (R)-(5-(2-(5-fluoropyridin-3-yl)pyrrolidin-1-yl)pyrazolo[1,5-a]pyrimidin-3-yl)(3-hydroxyazetid-1-yl)methanone], the inhibition at 1 µM came to 2.8%.

With `Cn1cc(F)cc([C@H]2CCCN2c2ccn3ncc(C(=O)NCC4CC4)c3n2)c1=O` [Example 232, (R)-N-(cyclopropylmethyl)-5-(2-(5-fluoro-1-methyl-oxo-1,2-dihydropyridin-3-yl)pyrrolidin-1-yl)pyrazolo[1,5-a]pyrimidine-3-carboxamide], the inhibition at 1 µM is 31.9%.

Regarding `CCc1ncc(F)cc1[C@H]1CCCN1c1ccn2ncc(C(=O)N[C@H]3CC[C@H](O)CC3)c2n1` [Example 199, 5-((R)-2-(2-ethyl-5-fluoropyridin-3-yl)pyrrolidin-1-yl)-N-((trans)-4-hydroxycyclohexyl)pyrazolo[1,5-a]pyrimidine-3-carboxamide], the inhibition at 1 µM was determined as 38.8%.

With `Cc1ncc(F)cc1[C@H]1CCCN1c1ccn2ncc(C(=O)NC[C@@H](C)O)c2n1` [Example 189, (R)-5-(2-(5-fluoro-2-methylpyridin-3-yl)pyrrolidin-1-yl)-N-((R)-2-hydroxypropyl)pyrazolo[1,5-a]pyrimidine-3-carboxamide], the inhibition at 1 µM came to 4.6%.

On to `COc1ncc(F)cc1[C@H]1CCCN1c1ccn2ncc(C(=O)NOCCOC(C)(C)C)c2n1` [Example 152, (R)-N-(2-tert-butoxyethoxy)-5-(2-(5-fluoro-2-methoxypyridin-3-yl)pyrrolidin-1-yl)pyrazolo[1,5-a]pyrimidine-3-carboxamide], for which the inhibition at 1 µM is 7.6%.
